In US6399574B1 (priority 1997, dated 2002):
“And” between values parts separate entries of the source, which are not always exact repeats. Equal entries are not always repeated.

Experiments:
[1] = system: Frings audiogenic seizure susceptible mice; conditions: mouse, in vivo
[2] = system: Frings audiogenic seizure-susceptible mice; conditions: mouse, in vivo

Structure (SMILES) | animals protected [1] | toxicity (rotorod) [2]
NC(=O)OCC(COC(N)=O)c1ccccc1 [Felbamate, reference compound] | 5/8 protected and 4/8 protected | no marked
CC1(C)O[C@@H]2[C@@H](CO[C@@]3(COS(N)(=O)=O)OC(C)(C)O[C@@H]23)O1 [Topiramate, reference compound] | – | no marked
